Data taken from ChEMBL document CHEMBL1131285, “Quinolines as potent 5-lipoxygenase inhibitors: synthesis and biological profile of L-746,530” (Bioorg Med Chem Lett, 1998).

Columns and labels:
[1] = target: T1, Polyunsaturated fatty acid 5-lipoxygenase (Homo sapiens, UniProt P09917); assay: Compound was evaluated for in vitro inhibition of recombinant human 5-lipoxygenase (5-LO)
T1 sequence (P09917 whole entry): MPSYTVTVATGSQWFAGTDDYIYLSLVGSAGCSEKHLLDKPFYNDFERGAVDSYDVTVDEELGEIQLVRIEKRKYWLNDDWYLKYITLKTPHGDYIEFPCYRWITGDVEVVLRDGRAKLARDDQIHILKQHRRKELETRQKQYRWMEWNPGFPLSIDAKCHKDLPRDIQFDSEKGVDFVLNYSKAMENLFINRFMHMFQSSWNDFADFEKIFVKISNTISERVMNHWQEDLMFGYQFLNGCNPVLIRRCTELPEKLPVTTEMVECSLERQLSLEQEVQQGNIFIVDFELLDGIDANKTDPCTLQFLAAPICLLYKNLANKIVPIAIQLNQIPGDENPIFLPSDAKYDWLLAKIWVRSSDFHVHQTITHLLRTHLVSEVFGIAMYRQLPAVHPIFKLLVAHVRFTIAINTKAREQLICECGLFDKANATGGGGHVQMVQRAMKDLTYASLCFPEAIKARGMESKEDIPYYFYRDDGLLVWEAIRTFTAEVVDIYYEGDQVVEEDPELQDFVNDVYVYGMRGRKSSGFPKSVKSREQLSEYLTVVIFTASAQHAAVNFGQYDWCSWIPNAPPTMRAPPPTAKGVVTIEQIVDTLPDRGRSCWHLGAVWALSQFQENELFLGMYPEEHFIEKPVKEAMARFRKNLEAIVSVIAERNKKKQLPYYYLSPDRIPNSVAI

Homo sapiens = species on record: Homo sapiens; assay: Compound was evaluated for in vitro inhibition of leukotriene (LTB4) in human whole blood (HWB); assay type: functional
[2] = Compound was evaluated for in vitro inhibition of leukotriene (LTB4) in human peripheral blood polymorphonuclear leukocytes (HPMN); assay type: functional
Rattus norvegicus = assay: The effect on the biosynthesis of leukotriene B4 in vivo was evaluated in the rat pleural cavity using a carrageenan-induced model of inflammation after oral administration at 6 hr; assay type: functional

Row | SMILES | IC50 [1] | IC50 (Homo sapiens) | IC50 [2] | ED50 (Rattus norvegicus)
1 | N#Cc1cc(-c2ccoc2)c2ccc(OCc3cccc(C4(O)CC5COC(C4)O5)n3)cc2n1 (stereo not given) | 36 nM | 103 nM | 4 nM | 
2 | N#Cc1cc(-c2ccoc2)c2ccc(OCc3cccc(C4(O)CC5COC(C4)O5)n3)cc2c1 (stereo not given) |  |  | 1.6 nM | 
3 | N#Cc1cc(-c2ccoc2)c2ccc(OCc3cccc(C4(O)CC5COC(C4)O5)c3)cc2n1 (stereo not given) | > 3000 nM | 287 nM | 10 nM | 
4 | N#Cc1cc(-c2ccoc2)c2ccc(COc3cc(F)cc(C4(O)CC5COC(C4)O5)c3)cc2n1 (stereo not given) |  |  |  | < 0.1 mg/kg
5 | O=c1cc(-c2ccoc2)c2ccc(OCc3cccc(C4(O)CC5COC(C4)O5)n3)cc2n1Cc1ccccc1 (stereo not given) | 102 nM | 160 nM | 5.8 nM | 
6 | OC1(c2cccc(COc3ccc4c(-c5ccoc5)cncc4c3)n2)CC2COC(C1)O2 (stereo not given) | 1460 nM | 90 nM | 10.3 nM | 
7 | N#Cc1cc(-c2ccoc2)c2ccc(CSc3cc(F)cc(C4(O)CC5COC(C4)O5)c3)cc2n1 (stereo not given) | 124 nM | 193 nM | 6 nM | 
8 | N#Cc1cc2cc(OCc3cccc(C4(O)CC5COC(C4)O5)n3)ccc2c(-c2ccoc2)n1 (stereo not given) | 1960 nM | 47 nM | 18 nM | 
